Several values for one entry are separate records, joined by “and”; a condition that tells them apart may be missing. Equal values may be shown once. Toxic doses and inconclusive results are not listed.
Test system: L1210 leukemia ip in BDF1 mice, survival T/C
Test: NCI In Vivo Anticancer Drug Screen. Data for tumor model L1210 Leukemia (intraperitoneal) in B6D2F1 (BDF1) mice
Conditions: endpoint: mean survival time, higher = longer survival
Method in brief: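 Value reflects the ratio of survival in compound-treated mice to survival in vehicle-treated controls, with both groups carrying the same transplanted tumor.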

[1] = dose: 100.0 mg/kg/injection, schedule: Q04DX003 (ip), vehicle: Klucel (hydroxypropylcellulose) (HPC)
[2] = dose: 200.0 mg/kg/injection, schedule: Q04DX003 (ip), vehicle: Klucel (hydroxypropylcellulose) (HPC)
[3] = dose: 400.0 mg/kg/injection, schedule: Q04DX003 (ip), vehicle: Klucel (hydroxypropylcellulose) (HPC)
[4] = dose: 50.0 mg/kg/injection, schedule: Q01DX009 (ip), vehicle: Klucel (hydroxypropylcellulose) (HPC)
[5] = dose: 100.0 mg/kg/injection, schedule: Q01DX009 (ip), vehicle: Klucel (hydroxypropylcellulose) (HPC)
[6] = dose: 200.0 mg/kg/injection, schedule: Q01DX009 (ip), vehicle: Klucel (hydroxypropylcellulose) (HPC)
[7] = dose: 400.0 mg/kg/injection, schedule: Q01DX009 (ip), vehicle: Klucel (hydroxypropylcellulose) (HPC)
[8] = dose: 100.0 mg/kg/injection, schedule: Q01DX001 (ip), vehicle: carboxymethylcellulose (CMC)
[9] = dose: 200.0 mg/kg/injection, schedule: Q01DX001 (ip), vehicle: carboxymethylcellulose (CMC)
[10] = dose: 400.0 mg/kg/injection, schedule: Q01DX001 (ip), vehicle: carboxymethylcellulose (CMC)

SMILES: CCOC(=O)c1c[n]([Hg][n]2cc(C(=O)OCC)c(Nc3ccccc3Br)nc2=O)c(=O)nc1Nc1ccccc1Br
- T/C (dose: 3.0 mg/kg/injection, schedule: Q01DX009 (ip), vehicle: Klucel (hydroxypropylcellulose) (HPC)): 95 % of control
- T/C (dose: 6.0 mg/kg/injection, schedule: Q01DX009 (ip), vehicle: Klucel (hydroxypropylcellulose) (HPC)): 93 % of control
- T/C (dose: 6.25 mg/kg/injection, schedule: Q04DX003 (ip), vehicle: Klucel (hydroxypropylcellulose) (HPC)): 96 % of control
- T/C (dose: 12.0 mg/kg/injection, schedule: Q01DX009 (ip), vehicle: Klucel (hydroxypropylcellulose) (HPC)): 96 % of control
- T/C (dose: 12.5 mg/kg/injection, schedule: Q04DX003 (ip), vehicle: Klucel (hydroxypropylcellulose) (HPC)): 96 % of control and 103 % of control
- T/C (dose: 25.0 mg/kg/injection, schedule: Q04DX003 (ip), vehicle: Klucel (hydroxypropylcellulose) (HPC)): 88 % of control
- T/C (dose: 50.0 mg/kg/injection, schedule: Q04DX003 (ip), vehicle: Klucel (hydroxypropylcellulose) (HPC)): 100 % of control

SMILES: O=NN(CCF)C(=O)Nc1ccccc1
- T/C (dose: 18.0 mg/kg/injection, schedule: Q01DX001 (ip), vehicle: other): 160 % of control

SMILES: O=C(O)CCn1ccc2ccccc21
- T/C [1]: 97 % of control
- T/C [2]: 97 % of control
- T/C [3]: 97 % of control

SMILES: CC1CCc2c(c3c(=O)[nH]c(=O)[nH]c3oc2=O)C1 (stereo not given)
- T/C [4]: 105 % of control
- T/C [5]: 93 % of control
- T/C [6]: 89 % of control

SMILES: COC(=O)CCCCCCCC(=O)O
- T/C [5]: 94 % of control
- T/C [6]: 98 % of control
- T/C [7]: 102 % of control

SMILES: O=C(OC1COC(n2c(=O)oc3cc(Br)c(Cl)cc32)C(OC(=O)c2ccccc2)C1OC(=O)c1ccccc1)c1ccccc1 (stereo not given)
- T/C [8]: 96 % of control
- T/C [9]: 96 % of control
- T/C [10]: 89 % of control

SMILES: COC1OC2COC(c3ccccc3)OC2C(OC)C1OC(=O)c1ccccc1 (stereo not given)
- T/C (dose: 100.0 mg/kg/injection, schedule: Q04DX003 (ip), vehicle: saline): 93 % of control
- T/C (dose: 200.0 mg/kg/injection, schedule: Q04DX003 (ip), vehicle: saline): 91 % of control
- T/C (dose: 400.0 mg/kg/injection, schedule: Q04DX003 (ip), vehicle: saline): 98 % of control

SMILES: O=C(O)c1cc(=O)n2c3c(cccc13)CCC2
- T/C (dose: 50.0 mg/kg/injection, schedule: Q04DX003 (ip), vehicle: saline with Tween-80): 101 % of control
- T/C (dose: 100.0 mg/kg/injection, schedule: Q04DX003 (ip), vehicle: saline with Tween-80): 104 % of control
- T/C (dose: 200.0 mg/kg/injection, schedule: Q04DX003 (ip), vehicle: saline with Tween-80): 90 % of control

SMILES: CC(=O)Oc1cccc(OC(C)=O)c1OC(C)=O
- T/C [5]: 103 % of control
- T/C [1]: 107 % of control
- T/C [6]: 100 % of control
- T/C [2]: 97 % of control
- T/C [7]: 97 % of control
- T/C [3]: 100 % of control

SMILES: CSc1cc2c(cc1NC(C)=O)C(=O)c1cc(F)ccc1-2
- T/C [8]: 98 % of control
- T/C [9]: 101 % of control
- T/C [10]: 95 % of control

SMILES: CC1(C)CC(=O)c2c(cc(OS(C)(=O)=O)cc2OS(C)(=O)=O)O1
- T/C (dose: 3.12 mg/kg/injection, schedule: Q01DX009 (ip), vehicle: Klucel (hydroxypropylcellulose) (HPC)): 90 % of control
- T/C (dose: 6.25 mg/kg/injection, schedule: Q01DX009 (ip), vehicle: Klucel (hydroxypropylcellulose) (HPC)): 97 % of control
- T/C (dose: 12.5 mg/kg/injection, schedule: Q01DX009 (ip), vehicle: Klucel (hydroxypropylcellulose) (HPC)): 94 % of control

SMILES: OC1OCC(OCc2ccccc2)C(OCc2ccccc2)C1OCc1ccccc1 (stereo not given)
- T/C [8]: 101 % of control
- T/C [9]: 101 % of control
- T/C [10]: 95 % of control

SMILES: c1ccc2c(c1)C1c3ccccc3C2C2COCC12 (stereo not given)
- T/C [4]: 113 % of control
- T/C [5]: 108 % of control
- T/C [1]: 98 % of control
- T/C [2]: 100 % of control

From PubChem BioAssay AID248 (DTP/NCI, 2004)
